Experimental data taken from ChEMBL document CHEMBL5375954, “Discovery and Evaluation of C6-Substituted Pyrazolopyrimidine-Based Bisphosphonate Inhibitors of the Human Geranylgeranyl Pyrophosphate Synthase and Evaluation of Their Antitumor Efficacy in Multiple Myeloma, Pancreatic Ductal Adenocarcinoma, and Colorectal Cancer” (J Med Chem, 2023).
Calls of active or inactive are those of the source. The calls are words filed in the database; no cut-off is given here.

Columns and labels:
MIA PaCa-2 [1] = test: Induction of apoptosis in human MIA PaCa-2 cells at 1 uM incubated for 72 hrs in presence of geranylgeraniol by APC-Annexin-V/7-AAD staining based flow cytometry; type: functional, cell-based
[2] = Toxicity in NSG mouse xenografted with human RPMI-8226 cells assessed as reduction in body weight at 3 mg/kg, ip administered 3 times a week for 26 days and measured daily; type: organism-based; conditions: in vivo, time 26 day
[3] = AUC(0 to t) in Sprague-Dawley rat at 3 mg/kg, iv measured for 24 hrs by LC-MS/MS analysis; type: ADME, organism-based; parameters: dose 3 mg/kg, time 24 hrs, route iv; conditions: in vivo
[4] = Hepatotoxicity in male NSG mouse xenografted with human RPMI-8226 cells assessed as prominent nucleoli at 3 mg/kg, ip administered 3 times a week for 26 days and measured 48 hrs post last dose by H and E staining based assay; type: toxicity, organism-based; conditions: in vivo, 672 h, time 28 day
[5] = Hepatotoxicity in male NSG mouse xenografted with human RPMI-8226 cells assessed as serum AST level at 3 mg/kg, ip administered 3 times a week for 26 days and measured 48 hrs post last dose (reference value: 76 to 78 IU/L); type: toxicity, organism-based; conditions: in vivo, 672 h, time 28 day
[6] = Hepatotoxicity in female NSG mouse xenografted with human RPMI-8226 cells assessed as vasculitis or perivasculitis at 3 mg/kg, ip administered 3 times a week for 26 days and measured 48 hrs post last dose by H and E staining based assay; type: toxicity, organism-based; conditions: in vivo, 672 h, time 28 day
MIA PaCa-2 [7] = test: Induction of apoptosis in human MIA PaCa-2 cells at 1 uM incubated for 72 hrs by APC-Annexin-V/7-AAD staining based flow cytometry relative to control; type: functional
[8] = AUC(0 to infinity) in Sprague-Dawley rat at 3 mg/kg, iv measured for 24 hrs by LC-MS/MS analysis; type: ADME, organism-based; parameters: dose 3 mg/kg, time 24 hrs, route iv; conditions: in vivo
HCT-116 [9] = test: Induction of apoptosis in human HCT-116 cells assessed as late apoptotic cells at 1 uM incubated for 72 hrs by APC-Annexin-V/7-AAD staining based flow cytometry (reference value: 0%); type: functional
RPMI-8226 = test: Antitumor activity against human RPMI-8226 cells xenografted in NSG mouse assessed as reduction in tumor volume at 3 mg/kg, ip administered 3 times a week for 26 days; type: functional, organism-based; conditions: time 26.0 day
[10] = Metabolic stability in human liver microsomes assessed as compound remaining incubated for 45 mins in presence of NADPH by LC-MS/MS analysis; type: ADME, Microsome; conditions: 0.75 h
[11] = Cytotoxicity against human IMR-90 cells assessed as inhibition of cell growth at 360 nM incubated for 72 hrs by MTS assay relative to control; type: toxicity, cell-based
[12] = Hepatotoxicity in female NSG mouse xenografted with human RPMI-8226 cells assessed as foci of bile ductular/oval cell proliferation at 3 mg/kg, ip administered 3 times a week for 26 days and measured 48 hrs post last dose by H and E staining based assay; type: toxicity, organism-based, Bile duct; conditions: in vivo, 672 h, time 28 day
HCT-116 [13] = test: Induction of apoptosis in human HCT-116 cells assessed as live cells at 1 uM incubated for 72 hrs in presence of geranylgeraniol by APC-Annexin-V/7-AAD staining based flow cytometry (reference value: 95.3%); type: functional
[14] = Hepatotoxicity in female NSG mouse xenografted with human RPMI-8226 cells assessed as serum AST level at 3 mg/kg, ip administered 3 times a week for 26 days and measured 48 hrs post last dose (reference value: 84 to 229 IU/L); type: toxicity, organism-based; conditions: in vivo, 672 h, time 28 day
Cytochrome P450 2D6 = Cytochrome P450 2D6 (Homo sapiens, UniProt P10635); test: Inhibition of CYP2D6 (unknown origin); type: ADME
[15] = Metabolic stability in Sprague-Dawley rat liver microsomes assessed as compound remaining incubated for 45 mins in presence of NADPH by LC-MS/MS analysis; type: ADME, Microsome; conditions: 0.75 h
[16] = Hepatotoxicity in female NSG mouse xenografted with human RPMI-8226 cells assessed as inflammatory infiltrates at 3 mg/kg, ip administered 3 times a week for 26 days and measured 48 hrs post last dose by H and E staining based assay; type: toxicity, organism-based; conditions: in vivo, 672 h, time 28 day
HCT-116 [17] = test: Induction of apoptosis in human HCT-116 cells assessed as early apoptotic cells at 1 uM incubated for 72 hrs in presence of geranylgeraniol by APC-Annexin-V/7-AAD staining based flow cytometry (reference value: 1.16%); type: functional
[18] = Metabolic stability in CD-1 mouse liver microsomes assessed as compound remaining incubated for 45 mins in presence of NADPH by LC-MS/MS analysis; type: ADME, Microsome; conditions: 0.75 h
[19] = Toxicity in NSG mouse xenografted with human MIA PaCa-2 cells assessed as morbidity at 3 mg/kg, ip administered 3 times a week for 26 days and measured daily; type: organism-based; conditions: in vivo, time 26 day
HCT-116 [20] = test: Induction of apoptosis in human HCT-116 cells assessed as late apoptotic cells at 1 uM incubated for 72 hrs in presence of geranylgeraniol by APC-Annexin-V/7-AAD staining based flow cytometry (reference value: 0%); type: functional
[21] = Selectivity index, ratio of EC50 for human MIA PaCa-2 cells to EC50 for human RPMI-8226 cells; type: functional
[22] = Hepatotoxicity in female NSG mouse xenografted with human RPMI-8226 cells assessed as serum ALT level at 3 mg/kg, ip administered 3 times a week for 26 days and measured 48 hrs post last dose (reference value: 30 to 98 IU/L); type: toxicity, organism-based; conditions: in vivo, 672 h, time 28 day
[23] = Metabolic stability in human liver microsomes assessed as compound remaining incubated for 45 mins in absence of NADPH by LC-MS/MS analysis; type: ADME, Microsome; conditions: 0.75 h
JJN-3 = test: Antiproliferative activity against human JJN-3 cells harboring wild type KRAS at 0.1 to 10000 nM incubated for 72 hrs by MTS assay; type: functional, cell-based; conditions: dose 0.1-10000 nM
[24] = Hepatotoxicity in male NSG mouse xenografted with human RPMI-8226 cells assessed as eosinophilic degeneration at 3 mg/kg, ip administered 3 times a week for 26 days and measured 48 hrs post last dose by H and E staining based assay; type: toxicity, organism-based; conditions: in vivo, 672 h, time 28 day
[25] = biological target: T1, Farnesyl pyrophosphate synthase (Homo sapiens) (UniProt P14324); test: Inhibition of N-terminally His6-tagged recombinant human FPPS expressed in Escherichia coli BL21(DE3) cells using […] and [14C]IPP as substrate at 10 uM preincubated for 10 mins followed by substrate addition by scintillation counting analysis relative to control
T1 sequence (whole entry): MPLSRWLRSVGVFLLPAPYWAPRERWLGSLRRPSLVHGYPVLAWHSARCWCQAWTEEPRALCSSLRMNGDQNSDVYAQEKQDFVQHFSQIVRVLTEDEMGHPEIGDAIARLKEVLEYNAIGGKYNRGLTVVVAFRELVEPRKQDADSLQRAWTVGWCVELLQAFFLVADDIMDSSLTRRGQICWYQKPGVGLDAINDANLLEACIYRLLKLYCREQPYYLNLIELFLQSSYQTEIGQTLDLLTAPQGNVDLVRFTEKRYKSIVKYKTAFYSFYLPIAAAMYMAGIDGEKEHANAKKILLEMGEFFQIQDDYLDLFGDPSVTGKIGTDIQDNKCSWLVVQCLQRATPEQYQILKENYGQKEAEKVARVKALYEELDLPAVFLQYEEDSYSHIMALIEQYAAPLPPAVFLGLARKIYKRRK

[26] = Cytotoxicity against wild type mouse normal ductal organoid [N(10128)] at 1 uM incubated for 72 hrs by CellTiter-Glo luminescence based analysis; type: toxicity, tissue-based

Sequence of Cytochrome P450 2D6 (P10635 whole entry): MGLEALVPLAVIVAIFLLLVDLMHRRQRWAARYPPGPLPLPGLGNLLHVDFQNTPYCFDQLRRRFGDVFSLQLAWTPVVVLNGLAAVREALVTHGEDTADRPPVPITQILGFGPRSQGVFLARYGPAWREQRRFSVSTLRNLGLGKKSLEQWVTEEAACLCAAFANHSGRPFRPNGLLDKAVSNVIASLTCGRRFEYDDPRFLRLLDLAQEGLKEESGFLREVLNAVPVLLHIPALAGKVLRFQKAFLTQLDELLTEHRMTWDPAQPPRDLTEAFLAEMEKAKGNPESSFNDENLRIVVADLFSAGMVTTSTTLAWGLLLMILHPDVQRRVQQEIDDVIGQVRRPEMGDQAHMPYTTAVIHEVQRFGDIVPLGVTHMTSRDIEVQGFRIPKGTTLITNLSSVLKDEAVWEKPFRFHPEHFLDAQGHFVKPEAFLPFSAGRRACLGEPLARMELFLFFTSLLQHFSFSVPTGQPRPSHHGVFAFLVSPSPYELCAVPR

- AUC(0-t) at 24 h [3]: 254 µg·h/mL
- AUC(0-inf) [8]: 156 µg·h/mL
- Stability [10]: 107%
- IC50 (Cytochrome P450 2D6): > 40 µM
- Stability [15]: 89.7%
- Stability [18]: 103%
- Stability [23]: 100%
- inhibition [25]: < 10%
Structure (SMILES): Cn1ncc2c(NC(P(=O)(O)O)P(=O)(O)O)nc(-c3cccc(C(=O)Nc4ccc(C(F)(F)F)cc4)c3)nc21
- Activity (MIA PaCa-2 [1]): inactive
- Activity [2]: Non-Toxic
- Activity [4]: Non-Toxic
- Activity [5]: 96 IU/L
- Activity [6]: Non-Toxic
- Activity (MIA PaCa-2 [7]): ~50%
- Activity (HCT-116 [9]): 18%
- Activity (RPMI-8226): Active
- inhibition at 72 h, 0.36 µM [11]: 0%
- Activity [12]: Non-Toxic
- Activity (HCT-116 [13]): 93.2%
- Activity [14]: 199 IU/L
- Activity [16]: Non-Toxic
- Activity (HCT-116 [17]): 1.54%
- Activity [19]: Non-Toxic
- Activity (HCT-116 [20]): 2.17%
- Ratio EC50 [21]: ~10
- Activity [22]: 59 IU/L
- Activity (JJN-3): Active
- Activity [24]: Non-Toxic
- Activity [26]: Non-Toxic
